Assay results reported in USRE38825E1, “Glyphosate tolerant plants” (Monsanto Technology LLC, priority 1990, dated 2005).

Biological target: glyphosate oxidoreductase from LBAA, wild type (w1w2w3: SER84, LYS153, HIS334), SEQ ID NO:5 (Ochrobactrum sp. G-1, UniProt D2KI28, S2A)
Assay: Kinetic analysis of glyphosate oxidoreductase, wild type (crude E. coli lysate, glyoxylate-DNPH assay)
Format: biochemical, bacterial isolate LBAA (Pseudomonas strain LBAA)
Source text: An alternate method for the assay of glyphosate oxidoreductase involves reaction of the sample with 2,4-dinitrophenylhydrazine and determination of the amount of the glyoxylate-2,4-dinitrophenylhydrazone by HPLC analysis as described in detail in a later section.
Prior examples of engineered herbicide resistance by enzymatic inactivation of the herbicide have utilized enzymes with an ability to bind and metabilize the herbicides much more efficiently than glyphosate oxidoreductase metabolizes glyphosate.
The mutagenesis procedure used was that of Mn++-poisoned PCR and the template was a linearized glyphosate oxidoreductase gene plasmid containing the synthetic glyphosate oxidoreductase gene (SEQ ID NO:8). The oligonucleotide primers used were homologous to regions in the vector and flanking the glyphosate oxidoreductase gene. The PCR conditions employed were as follows: 1 minute at 94° C., 2 minutes at 55° C., and 3 minutes at 72° C. and with 35 cycles. A 5:1 ratio of dCTP+dGTP+TTP to dATP was used. The reactions contained MnCl2 at 125, 250, 375, or 500 μM. After the reaction, the amplified product was recloned into a vector containing a weak E. coli promoter. This vector was a pBR327 derivative containing the araBAD promoter and suitable cloning sites. One hundred colonies from this cloning step were then screened in E. coli GB993 for improved glyphosate tolerance and utilization phenotypes in media composed of MOPS minimal medium with glyphosate and Pi or with glyphosate alone, respectively. Growth rates were determined by measuring A550 over a 96 hour period. […] The glyphosate oxidoreductase gene was recloned into the expression vector portion and this phenotype verified. All kinetic analysis was performed on crude E. coli lysates. Putative glyphosate oxidoreductase variant proteins were overexpressed after subcloning the NcoI/HindIII variant glyphosate oxidoreductase gene into PrecA-gene10L expression vector. For overexpression in PrecA-gene10L constructs, GB993 cells containing the vector were induced at a Klett=110-120 in M9 minimal medium with 50 μg/ml nalidixic acid and allowed to grow for 2.5 hours at 37° C. with vigorous shaking. Cells were harvested by centrifugation at 4000 g, 5 minutes at 4° C., and resuspend in 100 mM Tris-HCl, pH 7.1, 1 mM EDTA, 35 mM KCl, 20% glycerol, and 1 mM benzamidine at 3 ml/g cell pellet. Lysates were prepared by breaking the cells in a French press, twice, at 1000 psi. […] Protein concentrations were determined using the Bio-Rad protein dye-binding assay. […] Ten minutes was determined to be the optimal time for the enzyme assay using 10 μg lysate. […] Enzyme activity was determined from the amount of glyoxylate-DNPH adduct formed by measuring A520 against a standard of glyoxylate. […]

O=C(O)CNCP(=O)(O)O [glyphosate, N-phosphonomethyl-glycine]
VmKm (domain switch experiment, wt (w1w2w3), substrate glyphosate): 0.022 | Km (read-out: K for glyphosate, general statement on the glyphosate oxidoreductase enzyme): 20 to 30 mM | VmKm (Glyp) (wild type): .03 | app Vm (Glyp) (wild type, pH 7.4, 30° C., enzyme amount by immunoblot): 0.8 U/mg
